These results are taken from patent US20090196869A1, “ANTITUMOR COMBINATIONS CONTAINING TAXANE DERIVATIVES” (SANOFI-AVENTIS, priority 2006, published 2009).

In data set [1] the test system is Human breast carcinoma UISO-BCA-1. Put plainly: Antitumor activity in Human Mammary UISO-BCA-1 xenografted in nude mice (3-arm dose-response). The class given is in vivo. The settings on record: for sensitivity of the UISO-BCA-1 xenograft to the agent: characterisation of the tumor model, monotherapy; for (T-C) days / CR / TFS d121 / log cell kill: acetocyclopropyl taxotere alone, day 17, 21, 25. How it is done:
This efficacy may be quantified, for example, by the log10 cells killed, which is determined according to the following formula: […]
A product is considered to be active if log10 cells killed is greater than or equal to 0.7. A product is considered to be very active if log10 cells killed is greater than 2.8.
The combination, used at its own maximum tolerated dose, in which each of the constituents will be present at a dose generally not exceeding its maximum tolerated dose, will manifest therapeutic synergy when the log10 cells killed is greater than the value of the log10 cells killed of the best constituent when it is administered alone.
(§1) The animals subjected to the experiment, generally mice, are subcutaneously grafted bilaterally with 30 to 60 mg of a tumor fragment on day 0. The animals bearing tumors are mixed before being subjected to the various treatments and controls. In the case of treatment of advanced tumors, tumors are allowed to develop to the desired size, animals having insufficiently developed tumors being eliminated. The selected animals are distributed at random to undergo the treatments and controls. […] The different animal groups are weighed 3 or 4 times a week until the maximum weight loss is reached, and the groups are then weighed at least once a week until the end of the trial.
The tumors are measured 2 or 3 times a week until the tumor reaches approximately 2 g, or until the animal dies if this occurs before the tumor reaches 2 g. The animals are autopsied when sacrificed.
The tumor model used to evaluate each drug combination was selected, in general, on the basis of its responsiveness to each of the agents when used as monotherapy. Using i.v. intermittent schedules, full dose response trials were conducted for each single agent and each combination. In the present case, the selected tumor was a Human breast carcinoma UISO-BCA-1 derived from a malignant pleural effusion. The primary tumor was well-differentiated infiltrating ductal carcinoma of the breast. Radiotherapy post mastectomy was practiced. Three years after, chemotherapy to treat a left supraclavicular mass was done (10 courses with cytoxan, methotrexate, 5-Fu and Tamoxifen). […] This tumor model was established in nude mice from a 2.10^7 cell implant, and maintained by serial sc passage as tumor fragment.
On the technique in general: Xenograft models place foreign cells or tissue in a host animal.

A short description of data set [2]: Toxicity (drug deaths, body weight loss, highest non-toxic dose) in tumor-bearing nude mice. Format: in vivo. The note with it: for % bwl at nadir / Drug deaths: acetocyclopropyl taxotere alone, day 17, 21, 25. The procedure:
as §1

[3] abbreviates: iv 12.4 mg/kg/day (total 37.2 mg/kg).
Where [4] appears, read: iv 20.0 mg/kg/day (total 60.0 mg/kg).
Setting [5] is: iv 32.3 mg/kg/day (total 96.9 mg/kg).
The mark [6] stands for this setting: iv 52.1 mg/kg/day (total 156.3 mg/kg).
Setting [7] is: single agent, iv day 17, 21, 25.

Consider `O=c1[nH]cc(F)c(=O)[nH]1` [5-Fluorouracil, reference compound], for which, in data set [1], the “sensitivity of the UISO-BCA-1 xenograft to the agent” value (shortened to “sensitivity”) is reported as “sensitive”.
Take `CC(=O)O[C@H]1C(=O)[C@]23C[C@H]2C[C@H]2OC[C@@]2(OC(C)=O)[C@H]3[C@H](OC(=O)c2ccccc2)[C@]2(O)CC(OC(=O)[C@H](O)C(NC(=O)OC(C)(C)C)c3ccccc3)C(C)=C1C2(C)C` (some centres unmarked) [acetocyclopropyl taxotere]: the “(T-C) days” value in data set [1] (setting [3]) was found to be 1.8 days; in data set [1] (setting [4]) it was 6.0 days; in data set [1] (setting [5]), 20.8 days. The CR is reported as 0/8 in data set [1] (setting [3]); 0/8 in data set [1] (setting [4]); 0/8 in data set [1] (setting [5]); “no regression” in data set [1] (iv 32.3 mg/kg/day (total 96.9 mg/kg), listed as acetyl cyclopropyl docetaxel). In addition, the “TFS d121” value in data set [1] (setting [3]), in data set [1] (setting [4]) and in data set [1] (setting [5]) was 0/8 each time. The log cell kill turned out to be 0.1 in data set [1] (setting [3]), 0.4 in data set [1] (setting [4]) and 1.3 in data set [1] (setting [5]). Also, the “sensitivity” value in data set [1] is listed as “sensitive”. For the same molecule, the “% bwl at nadir” value was found to be 0.5% in data set [2] (setting [3]), 0.5% in data set [2] (setting [4]), 5.2% in data set [2] (setting [5]) and 7.2% in data set [2] (setting [6]). The Drug deaths in data set [2] (setting [3]) is on record as 0/8; in data set [2] (setting [4]), 0/8; in data set [2] (setting [5]), 0/8; in data set [2] (setting [6]) it was 2/8. Moreover, the highest non-toxic dose in data set [2] (setting [7]) was determined as 32.3 mg/kg per injection. Besides, in data set [2] (setting [7]), the “highest non-toxic dose, total dose” value was 96.9 mg/kg.
Consider `O=P1(N(CCCl)CCCl)NCCCO1` (centres unmarked) [cyclophosphamide, reference compound], for which, in data set [1], the “sensitivity” value was “poorly sensitive”.
Consider `CC(=O)O[C@@]12CO[C@@H]1C[C@H](O)[C@@]1(C)C(=O)[C@H](O)C3=C(C)[C@@H](OC(=O)[C@H](O)[C@@H](NC(=O)OC(C)(C)C)c4ccccc4)C[C@@](O)([C@@H](OC(=O)c4ccccc4)[C@H]21)C3(C)C` [docetaxel, reference compound], for which the “sensitivity” value in data set [1] is “resistant”.
Consider `COc1cccc2c1C(=O)c1c(O)c3c(c(O)c1C2=O)C[C@@](O)(C(=O)CO)C[C@@H]3O[C@H]1C[C@H](N)[C@H](O)[C@H](C)O1` [doxorubicin, reference compound], for which the “sensitivity” value in data set [1] is reported as “poorly sensitive”.
Regarding `CC[C@]1(O)C[C@H]2CN(CCc3c([nH]c4ccccc34)[C@@](C(=O)OC)(c3cc4c(cc3OC)N(C=O)[C@H]3[C@@](O)(C(=O)OC)[C@H](OC(C)=O)[C@]5(CC)C=CCN6CC[C@]43[C@@H]65)C2)C1` [vincristine, reference compound], the “sensitivity” value in data set [1] was “poorly sensitive”.
